Measured values as given in patent publication US20030130340A1, “Novel benzothiophene derivatives” (Daiichi Pharmaceutical Co. Ltd., priority 2000, published 2003).
Where a name gives a salt, the structure may show the parent alone.

Legend:
[1] = target: T1, steroid 17α-hydroxylase and/or steroid C17-20 lyase (Rattus norvegicus, UniProt P11715); assay: Measurement of steroid 17α-hydroxylase and/or steroid C17-20 lyase inhibitory activity (rat testis microsome, HPLC); format: biochemical; conditions: Enzyme source: rat testis microsome; test compound 300 nM; substrate 25 μM 17α-hydroxyprogesterone; NADPH 500 μM; 20 minutes at 37° C.
T1 construct: the testis of rats (SD, male) was homogenized and centrifuged to obtain microsome; from tissue; host or cells: rat (SD, male) testis microsomes
T1 sequence (P11715 1-507): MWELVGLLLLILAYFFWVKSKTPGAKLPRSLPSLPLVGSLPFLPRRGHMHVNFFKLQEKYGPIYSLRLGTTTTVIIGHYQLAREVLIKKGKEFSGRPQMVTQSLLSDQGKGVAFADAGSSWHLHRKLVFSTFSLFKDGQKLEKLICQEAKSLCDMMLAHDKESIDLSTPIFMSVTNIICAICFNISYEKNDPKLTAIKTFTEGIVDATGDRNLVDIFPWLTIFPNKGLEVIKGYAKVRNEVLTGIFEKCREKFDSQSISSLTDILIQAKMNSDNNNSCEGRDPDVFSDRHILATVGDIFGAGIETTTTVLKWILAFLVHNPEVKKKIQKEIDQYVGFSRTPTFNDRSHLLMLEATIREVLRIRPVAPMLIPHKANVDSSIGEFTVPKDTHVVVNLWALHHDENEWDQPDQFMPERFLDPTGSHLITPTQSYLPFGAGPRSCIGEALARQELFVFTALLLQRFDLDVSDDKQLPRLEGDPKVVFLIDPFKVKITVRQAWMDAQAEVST
Experimental: An experiment was carried out according to the method of T. Sergejew and R. W. Hartmann (J. Enzyme Inhibition, 8, 113(1994)). That is, the testis of rats (SD, male) was homogenized and centrifuged to obtain microsome. […] After the addition of 100 μl of microsome protein solution, the protein contentration was adjusted to 0.1 mg/ml by 50 mM phosphate buffer solution (pH 7.4), 140 μl of 125 nmol NADPH solution, and 10 μl of 6.25 nmol 17α-hydroxyprogesterone, the mixture was incubated for 20 minutes at 37° C. 50 μl of 1N hydrochloric acid and 1000 μl of ethyl acetate were sequentially added to the mixture. The mixture was shaken and centrifuged. The ethyl acetate layer was washed with 250 μl of 50 mM phosphate buffer solution (pH 7.4) and 50 μl of 1N hydrochloric acid, centrifuged, and concentrated. The concentrate was dissolved in 100 μl of acetonitrile. 10 μl of this solution was charged to high performance liquid chromatography. The amounts of the substrate and the product (androstenedione and testosterone) were measured to calculate the enzyme activity. In this experiment, a sample without the test compound was provided as a control group. Steroid 17α-hydroxylase and/or steroid C17-20-lyase inhibitory activity (%) was calculated by the following equation (1) using the amounts of the substrate and the product obtained.

| SMILES | melting point | inhibition at 0.3 µM [1] |
| --- | --- | --- |
| COc1ccc2c(-c3ccccn3)csc2c1.Cl [Example 3, 2-[6-methoxybenzo[b]thiophen-3-yl]pyridine hydrochloride] | 205.5 to 207 °C (dec.) | 9% |
| Oc1ccc2c(-c3ccncc3)csc2c1 [Example 6, 3-(4-pyridyl)benzo[b]thiophen-6-ol] | 246 to 250 °C | 3% |
| Oc1cccc(-c2ccc3c(-c4cccnc4)csc3c2)c1 [Example 17, 3-[3-(3-pyridyl)benzo[b]thiophen-6-yl]-phenol] | 188.5 to 189.5 °C | 100% |
| c1cncc(-c2ccc3c(-c4cccnc4)csc3c2)c1 [Example 20, 3-[6-(3-pyridyl)benzo[b]thiophen-3-yl]pyridine] | 131.5 to 133 °C | 100% |
| O=[N+]([O-])c1cccc(-c2ccc3c(-c4cccnc4)csc3c2)c1 [Example 53, 3-[6-(3-nitrophenyl)benzo[b]thiophen-3-yl]pyridine] | – | 86% |
| CC(C)Nc1ccc2c(-c3cccnc3)csc2c1 [Example 54, isopropyl[3-(3-pyridyl)benzo[b]thiophen-6-yl]amine] | – | 98% |
| c1cncc(-c2csc3cc(N4CCOCC4)ccc23)c1 [Example 55, 4-[3-(3-pyridyl)benzo[b]thiophen-6-yl]morpholine dihydrochloride] | – | 94% |
| CC(=O)Nc1ccc2c(-c3cccnc3)csc2c1 [Example 56, N1-[3-(3-pyridyl)benzo[b]thiophen-6-yl]acetamide] | – | 63% |
